Reference: patent US5550121A, “Aminoalkylpyrrolidinylthiocarbapenem derivatives” (priority 1991, dated 1996)
Values after ≈ are worked out from the molar mass of the structure shown. Like-named read-outs stand apart in the source and are kept apart here. One block for each molecule: values may come before it.

Key:
P. aeruginosa MB5002 = experiment: in vitro antibacterial activity by agar plate dilution method (MIC); format: cell-based; conditions: Pseudomonas aeruginosa, read-out: Minimum Inhibitory Concentration (MIC)
Procedure: (§1) One platinum loopful of each test microorganism incubated overnight in Mueller Hinton broth, was inoculated to Mueller Hinton agar (inoculum size: 10^6 CFU/ml). Such culture media contained antibacterial agents in various concentrations. After incubation at 37° C. for 16 hours, the minimum inhibitory concentrations (MIC: μg/ml) were measured.
(§2) The minimum inhibitory concentrations and the DHP-I susceptibility of the compounds of the present invention were compared with imipenem and the compound of REFERENCE EXAMPLE 13.

P. aeruginosa MB5178 = experiment: as above; format: cell-based; conditions: Pseudomonas aeruginosa, MB5178, 16 h, read-out: Minimum Inhibitory Concentration (MIC)
Procedure: as §1, §2

[1] = Pharmacokinetics in mice after s.c. dosing, bioassay of plasma and urine; conditions: mouse, sc, 20 mg/kg; for AUC / Cmax / Tmax / half-life: plasma; for dose excreted at 6 h: urine
Procedure: Pharmacokinetics in mice: Groups of three 20 g ddY male mice were given a single dose of 20 mg/kg of the compound of EXAMPLE 19 and imipenem by sc route. One group of three mice was placed in a metabolism cage designed to collect the urine free from fecal contamination. At a specified time after dosing, blood and urine samples were collected from a group for bioassay. The plasma was collected from the pooled blood after centrifugation. Microbiological assays: Bioactivity in the specimens was measured was by the standard disk diffusion procedure using Bacillus subtilis ATCC12432 as a test organism.

[2] = tested on: renal dehydropeptidase I (DHP-I); conditions: cited from earlier work
[3] = imipenem compared with thienamycin; cited from earlier work
[4] = tested on: renal dehydropeptidase I (DHP-I); experiment: DHP-I susceptibility (method by Kropp et al.), ratio to imipenem; format: in vitro ADME; conditions: ratio to imipenem (=1.0); the smaller the value, the higher the stability
Description: Further, the DHP-I susceptibility was quantitatively analyzed by the method by Kropp et al., Antimicrob. Agents Chemother., vol. 22, p. 62-70 (1982), whereby the smaller the numerical value representing the ratio to imipenem (=1.0), the higher the stability.
as §2

[5] = tested on: various gram positive bacteria and gram negative bacteria; conditions: cited from earlier work
[6] = due to the decomposition products; cited from earlier work
[7] = tested on: highly methicillin resistant Staphylococcus aureus which is resistant to imipenem and imipenem resistant Pseudomonas aeruginosa; conditions: clinical field; cited from earlier work
Pseudomonas aeruginosa = conditions: superior to thienamycin; cited from earlier work
[8] = in vivo; cited from earlier work
[9] = P. aeruginosa MB5002, Mueller Hinton agar, inoculum 10^6 CFU/ml, 37° C., 16 hours
[10] = P. aeruginosa MB5178, Mueller Hinton agar, inoculum 10^6 CFU/ml, 37° C., 16 hours

Compound: C[C@@H](O)[C@H]1C(=O)N2C(C(=O)O)=C(S[C@@H]3CN[C@H](C(O)CCN)C3)[C@H](C)[C@H]12 (single isomer, unassigned) [Example 9]
MIC (P. aeruginosa MB5002; [9]): 0.78 µg/mL (≈ 2.02 µM)
MIC (P. aeruginosa MB5178; [10]): 1.56 µg/mL (≈ 4.05 µM)

Compound: C[C@@H](O)[C@H]1C(=O)N2C(C(=O)O)=C(S[C@@H]3CN[C@H](C(O)CN)C3)[C@H](C)[C@H]12 (single isomer, unassigned) [Example 13]
MIC (P. aeruginosa MB5002; [9]): 1.56 µg/mL (≈ 4.2 µM)
MIC (P. aeruginosa MB5178; [10]): 3.13 µg/mL (≈ 8.43 µM)

Compound: C[C@@H](O)[C@H]1C(=O)N2C(C(=O)O)=C(SCCN=CN)C[C@H]12 [Imipenem, (5R,6S,8R)-3-[[2-(formimidoylamino)ethyl]thio]-6-(1-hydroxyethyl)-7-oxo-1-azabicyclo[3.2.0]hept-2-en-2-carboxylic acid monohydrate]
decomposition by DHP-I [2]: likely to be decomposed by DHP-I in the human kidney
stability in the solid form or in an aqueous solution [3]: remarkably improved over thienamycin
DHP-I susceptibility [4]: 1.0
AUC [1]: 9500 ng·h/mL
Cmax [1]: 21500 ng/mL
Tmax [1]: 10.8 min
half-life [1]: 7.2 min
dose excreted at 6 h [1]: 21.5%
antibacterial activities compared with thienamycin ([5]; various types of bacteria): equal or higher level than thienamycin
MIC (P. aeruginosa MB5002; MB5002, 16 h): 1.56 µg/mL
MIC (P. aeruginosa MB5178): 25 µg/mL
toxicity against the kidney [6]: presents toxicity against the kidney due to the decomposition products
treating effects against resistant bacteria [7]: does not show adequate treating effects
antibacterial activities compared with thienamycin (Pseudomonas aeruginosa): 2 to 4 times

Compound: C[C@@H](O)[C@H]1C(=O)N2C(C(=O)O)=C(SCCN)C[C@H]12 [thienamycin]
recovery rate in the urine [8]: low
decomposition by DHP-I [2]: likely to be decomposed
antibacterial activities ([5]; statement in words, prior art): strong antibacterial activities over a wide range against gram positive bacteria and gram negative bacteria

The next lines start with the values.

MIC (P. aeruginosa MB5002; [9]): 0.78 µg/mL (≈ 2.03 µM)
Compound: CC(CN)C[C@@H]1C[C@H](SC2=C(C(=O)O)N3C(=O)[C@H]([C@@H](C)O)[C@H]3[C@H]2C)CN1 (single isomer, unassigned) [Example 7]

AUC [1]: 13800 ng·h/mL
Cmax [1]: 29000 ng/mL
Tmax [1]: 10.8 min
half-life [1]: 7.8 min
dose excreted at 6 h [1]: 62.5%
Compound: CNCC[C@@H](O)[C@@H]1C[C@H](SC2=C(C(=O)O)N3C(=O)[C@H]([C@@H](C)O)[C@H]3[C@H]2C)CN1 [Example 19]

DHP-I susceptibility [4]: 0.7
MIC (P. aeruginosa MB5002; [9]): 6.25 µg/mL (≈ 16.3 µM)
MIC (P. aeruginosa MB5178; [10]): 12.5 µg/mL (≈ 32.6 µM)
Compound: CC(=O)NC[C@@H]1C[C@H](SC2=C(C(=O)O)N3C(=O)[C@H]([C@@H](C)O)[C@H]3[C@H]2C)CN1 [compound 13, (1R,5S,6S)-2-[(2S,4S)-2-(Acetylaminomethyl)pyrrolidin-4-ylthio]-6-[(1R)-1-hydroxyethyl]-1-methyl-1-carbapen-2-em-3-carboxylic Acid]
